Results from patent publication US4340609A, “Amidinourea derivative veterinary compositions for suppression of parasitemia” (William H. Rorer, Inc., priority 1980, dated 1982).
Where two headings read alike, the source gives them in different places.

Key:
[1] = tested on: plasmodium berghei; test: suppression of parasitemia in mice infected with plasmodium berghei; type: in vivo; conditions: for ED50: Plasmodium berghei, sc; for ED50 / Mean % Parasitemia / Mean % Suppression / % died: mice
Method: Five representative amidinoureas were tested in mice infected with plasmodium berghei. The five compounds tested are the following:
Groups of 10 mice each were used in seven doses totaling 70 mice per compound. The protozoal infection was induced by intraperitoneal injection of 5,000,000 parasitized blood cells from a donor. The compound was administered subcutaneously in doses ranging from 0.15 to 10 mg. per kg., suspended on 0.5% methacel solution (doses expressed as base). The compound was repeatedly injected on the day of inoculation (day 1), day 2 and day 3. Blood smears were performed on days 4, 5, 6 and 10.
Untreated control but infected mice developed fulminating parasitemia of as high as 35% on day 10 and deaths occurred from day 12 to 14.

[2] = LD50 in mice; conditions: mouse, in vivo
[3] = tested on: Babesis caballi, or B. equi; conditions: horses; reported; cited from earlier work
[4] = tested on: P. berghei; conditions: cited from earlier work
[5] = s.c., 2.0 mg/kg on days 1-3, 4th day
[6] = s.c., 2.0 mg/kg on days 1-3, 5th day
[7] = s.c., 2.0 mg/kg on days 1-3, 6th day
[8] = s.c., 2.0 mg/kg on days 1-3, 10th day
[9] = s.c., 10.0 mg/kg on days 1-3, 4th day
[10] = s.c., 10.0 mg/kg on days 1-3, 5th day
[11] = s.c., 10.0 mg/kg on days 1-3, 6th day
[12] = s.c., 10.0 mg/kg on days 1-3, 10th day
[13] = s.c., .20 mg/kg on days 1-3, 4th day
[14] = s.c., .20 mg/kg on days 1-3, 5th day
[15] = s.c., .20 mg/kg on days 1-3, 6th day
[16] = s.c., .20 mg/kg on days 1-3, 10th day
[17] = s.c., .50 mg/kg on days 1-3, 4th day
[18] = s.c., .50 mg/kg on days 1-3, 5th day
[19] = s.c., .50 mg/kg on days 1-3, 6th day
[20] = s.c., .50 mg/kg on days 1-3, 10th day

Compound: Cc1cccc(C)c1NC(=O)NC(=N)NC(C)C.Cl [Compound E, 1-(2,6-dimethylphenyl)-3-(isopropylamidino)urea hydrochloride]
- ED50 ([1]; 96 h, s.c., levels of parasitemia, 4th day, read-out: SED50 (Suppressant Effective Dose50)): 0.9 mg/kg
- ED50 ([1]; 120 h, s.c., levels of parasitemia, 5th day, read-out: SED50 (Suppressant Effective Dose50)): 1.52 mg/kg
- ED50 ([1]; 144 h, s.c., levels of parasitemia, 6th day, read-out: SED50 (Suppressant Effective Dose50)): 1.52 mg/kg
- ED50 ([1]; 240 h, s.c., levels of parasitemia, 10th day, read-out: SED50 (Suppressant Effective Dose50)): 5.63 mg/kg
- ED50 ([1]; day 4 to day 10, read-out: HIGHEST SED50): 5.63 mg/kg
- ED50 ([1]; day 4 to day 10, read-out: LOWEST SED50): 0.9 mg/kg
- FACTOR (HIGHEST SED50 ÷ LOWEST SED50) ([1]; factor of change, day 4 to day 10, duration of action): 6.26
- Mean % Parasitemia [1, 5]: 1.75%
- Mean % Suppression [1, 5]: 66.7%
- Mean % Parasitemia [1, 6]: 3.50%
- Mean % Suppression [1, 6]: 52.1%
- Mean % Parasitemia [1, 7]: 4.10%
- Mean % Suppression [1, 7]: 55.9%
- Mean % Parasitemia [1, 8]: 27.7%
- Mean % Suppression [1, 8]: 22.0%
- % died ([1]; s.c., 2.0 mg/kg on days 1-3, 12th day): 0%
- % died ([1]; s.c., 2.0 mg/kg on days 1-3, 13th day): 20%
- % died ([1]; s.c., 2.0 mg/kg on days 1-3, 14th day): 40%
- Mean % Parasitemia [1, 9]: 0%
- Mean % Suppression [1, 9]: 100.0%
- Mean % Parasitemia [1, 10]: 0%
- Mean % Suppression [1, 10]: 100.0%
- Mean % Parasitemia [1, 11]: 0%
- Mean % Suppression [1, 11]: 100.0%
- Mean % Parasitemia [1, 12]: 0%
- Mean % Suppression [1, 12]: 100.0%
- % died ([1]; s.c., 10.0 mg/kg on days 1-3, 12th day): 0%
- % died ([1]; s.c., 10.0 mg/kg on days 1-3, 13th day): 0%
- % died ([1]; s.c., 10.0 mg/kg on days 1-3, 14th day): 0%
- Mean % Parasitemia [1, 13]: 5.25%
- Mean % Suppression [1, 13]: 0%
- Mean % Parasitemia [1, 14]: 7.00%
- Mean % Suppression [1, 14]: 4.1%
- Mean % Parasitemia [1, 15]: 8.70%
- Mean % Suppression [1, 15]: 6.5%
- Mean % Parasitemia [1, 16]: 33.9%
- Mean % Suppression [1, 16]: 4.5%
- % died ([1]; s.c., .20 mg/kg on days 1-3, 12th day): 0%
- % died ([1]; s.c., .20 mg/kg on days 1-3, 13th day): 60%
- % died ([1]; s.c., .20 mg/kg on days 1-3, 14th day): 60%
- Mean % Parasitemia [1, 17]: 2.50%
- Mean % Suppression [1, 17]: 52.3%
- Mean % Parasitemia [1, 18]: 6.90%
- Mean % Suppression [1, 18]: 5.5%
- Mean % Parasitemia [1, 19]: 7.40%
- Mean % Suppression [1, 19]: 20.4%
- Mean % Parasitemia [1, 20]: 31.3%
- Mean % Suppression [1, 20]: 11.8%
- % died ([1]; s.c., .50 mg/kg on days 1-3, 12th day): 0%
- % died ([1]; s.c., .50 mg/kg on days 1-3, 13th day): 20%
- % died ([1]; s.c., .50 mg/kg on days 1-3, 14th day): 60%
- LD50 [2]: 82 to 135 mg/kg

Compound: C[n+]1cccc2cc(NC(=O)Nc3ccc4c(ccc[n+]4C)c3)ccc21 [acaprin]
- effect on equine piroplasmosis parasites [3]: only to reduce the number of parasites

Compound: N=C(N)c1ccc(N=NNc2ccc(C(=N)N)cc2)cc1 [birenil]
- effect on equine piroplasmosis parasites [3]: only to reduce the number of parasites

Compound: CC1(C)N=C(N)N=C(N)N1c1ccc(Cl)cc1 [chloroguanide triazine pamoate]
- excretion from the host body ([4]; P. berghei infected mice, single muscular injection): not excreted rapidly from the host body
- effect in P. berghei infected mice ([4]; single muscular injection): good and lasting effects

Compound: CCc1nc(N)nc(N)c1-c1ccc(Cl)cc1 [pyrimethamine]
- resistance of P. berghei ([4]; P. berghei): resistant

Compound: acriflavin
- effect on equine piroplasmosis parasites [3]: only to reduce the number of parasites
